Data published in patent US9440983B2, “Pyrrolo[3,2-d]pyrimidine-2,4(3H,5H)-dione derivatives” (Hydra Biosciences, Inc., priority 2014, dated 2016).

Tests used:
TRPC5 channel [1] = molecular target: T1, TRPC5 channel (Homo sapiens, UniProt Q9UL62); assay: High throughput screening assay: Fluo4 cell-based fluorescence detection of intracellular Ca2+ rise; details: HEK293/TREx cells inducibly expressing TRPC5, high-Ca2+ Ringer (14 mM Ca2+), 7 concentrations in triplicate
T1 construct: expressed in transfected cells; host or cells: HEK293/TREx (Invitrogen), stably transfected, tetracycline-induced
T1 sequence (Q9UL62 1-973): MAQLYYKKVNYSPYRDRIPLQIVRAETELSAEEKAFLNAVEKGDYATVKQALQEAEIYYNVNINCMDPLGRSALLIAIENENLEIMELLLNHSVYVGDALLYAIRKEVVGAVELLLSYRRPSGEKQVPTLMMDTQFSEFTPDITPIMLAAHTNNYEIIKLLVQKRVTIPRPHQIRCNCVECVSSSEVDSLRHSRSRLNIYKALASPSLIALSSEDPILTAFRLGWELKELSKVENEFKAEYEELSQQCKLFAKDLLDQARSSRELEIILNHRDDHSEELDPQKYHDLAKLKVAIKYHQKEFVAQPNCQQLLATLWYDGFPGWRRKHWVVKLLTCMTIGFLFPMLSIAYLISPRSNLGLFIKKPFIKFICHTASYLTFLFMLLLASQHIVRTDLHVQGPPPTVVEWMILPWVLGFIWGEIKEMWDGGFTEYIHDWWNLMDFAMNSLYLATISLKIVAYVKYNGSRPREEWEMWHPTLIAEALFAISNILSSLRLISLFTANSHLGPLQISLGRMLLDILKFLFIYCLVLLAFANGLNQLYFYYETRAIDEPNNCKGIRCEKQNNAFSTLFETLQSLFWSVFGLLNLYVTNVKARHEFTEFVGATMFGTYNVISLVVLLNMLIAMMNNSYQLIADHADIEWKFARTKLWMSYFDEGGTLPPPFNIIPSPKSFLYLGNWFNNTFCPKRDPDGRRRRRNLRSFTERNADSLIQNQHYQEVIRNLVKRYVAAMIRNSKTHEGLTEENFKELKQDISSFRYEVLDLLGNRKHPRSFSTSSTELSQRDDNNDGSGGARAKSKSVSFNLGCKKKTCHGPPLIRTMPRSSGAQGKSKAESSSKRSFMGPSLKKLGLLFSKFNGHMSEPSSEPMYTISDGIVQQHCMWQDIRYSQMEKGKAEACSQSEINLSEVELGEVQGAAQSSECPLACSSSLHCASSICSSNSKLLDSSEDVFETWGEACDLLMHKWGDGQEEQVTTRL
Description: The assay depended on detection of the rise in intracellular Ca2+ concentration ([Ca2+]i) following channel activation in cells inducibly expressing the TRPC5 channel. Ca2+ rise was quantified with the use of fluorescent Ca2+ indicators that were loaded into cells and thereafter indicated the [Ca2+]i Ca2+ influx followed activation of the TRPC5 channel. Compounds inhibiting the [Ca2+]i rise were considered hits for further investigation.
The commercially available HEK293/TREx line (Invitrogen) was stably transfected with a TRPC5 construct and screened by conventional calcium imaging to find clones with TRPC5 expression following stimulation with 1 μg/ml tetracycline. These cells were maintained in the growth medium recommended by the manufacturer supplemented with 100 μg/ml hygromycin to promote retention of the TRPC5 construct. After growing to near confluency, cells were plated at a density of ˜35,000 cells/well in 384 well CellBind plates (Corning) in the presence of 1 μg/ml tetracycline, and allowed to grow for 20-30 hrs. A nearly confluent monolayer resulted. Cells were then loaded with Ca2+ dye: Fura-2/AM or Fluo4/AM was added to the wells to a final concentration of 4 μM or 0.5 μM, respectively, and incubated for 80 min or 60 min, respectively, at room temperature. Supernatant was then removed from the cells by inverting plates with a sharp flick, and 25 μl Hank's Balanced Salt Solution (HBSS; 0.185 g/l D-glucose, 0.9767 g/l MgS04 (anhydrous), 0.4 g/l KCl, 0.06 g/l KH2PO4 (anhydrous), 0.35 g/l NaHCO3, 8.0 g/l NaCl, and 0.04788 g/l Na2HPO4 (anhydrous); pH 7.4) was then added to each well. Following ˜0.5 hour for recovery from loading, cells were assayed using the Hamamatsu FDSS 6000 system, which permitted illumination alternately at 340 nm and 380 nm for Fura-2 experiments, or at 485 nm for Fluo4 experiments. Frames were acquired at a rate of 0.2 Hz. During the assay, the plates were continuously vortexed, with pipette mixing of wells following addition of each reagent. For the screening assay, 26 μl of a diluted compound stock (at 50 μM) was added to each well for 2 minutes following the collection of a short (4 frame) baseline. 13 μl 62 mM high-Ca2+ Ringer solution (4.17 ml of normal ringer (with 2 mM Ca2+) plus 5.83 ml of isotonic calcium ringer (105 mM Ca2+; in this ringer all sodium has been replaced with calcium)) was then added to each well, achieving a final concentration of 14 mM Ca2+ and 10 μM test compound. Data was collected for ˜3 minutes following addition of high Ca2+Ringer, where the fluorescent intensity (for Fluo4) and the F340/F380 ratio (for Fura-2) were proportional to the [Ca2+]i Negative controls consisted of HEK293/TREx TRPC5 cells exposed to high Ca2+ solution, but no compound. Positive control conditions consisted of addition of 2-APB, a promiscuous blocker of TRPC5 and other channels, to columns 23 and 24 of the plates, to a final concentration of 200 μM. These controls defined a screening window, and “hits” were defined as those compounds inhibiting the fluorescence response by at least 40%. IC50 values were determined for compounds defined as “hits.” The Fluo4 cell-based fluorescence assay was used to determine the intracellular Ca2+ concentration in the presence of varying drug concentration. Final concentrations of compounds tested were 20 μM, 6.667 μM, 2.222 μM, 0.741 μM, 0.247 μM, 0.082 μM, and 0.027 μM. Compounds were tested in triplicate at all concentrations. Standard software was used to fit IC50 curves.
Additionally or alternatively, efficacy can be represented as % inhibition in the presence (of a given concentration of compound) versus the absence of compound or in comparison to a control compound. For example, efficacy can be represented as % inhibition of ion flux in the presence versus the absence of compound.

TRPC5 channel [2] = molecular target: T1, TRPC5 channel; assay: Whole-cell patch clamp experiments, TRPC5 current; type: cell-based; details: whole-cell patch clamp in TRPC5-expressing HEK293 TREx cells; current activated by LaCl3; IC50 estimated
Description: Patch clamp experiments permit the detection of currents through the TRPC5 channel in the cell line described above. In normal whole-cell patch clamp recordings, a glass electrode is brought into contact with a single cell and a high-resistance (gigaohm) seal is established with the cell membrane. The membrane is then ruptured to achieve the whole-cell configuration, permitting control of the voltage of the cell membrane and measurement of currents flowing across the membrane using the amplifier attached to the electrode and resulting in the replacement of cytoplasm with the pipette solution. A perfusion system permits control of the extracellular solution, including the addition of blockers and activators of the current. The current can be activated by including 1.4 μM free Ca^2+ in the pipette (intracellular) solution, and 80 μM LaCl3 in the extracellular solution. TRPC5 cells were induced 20-48 hours, removed from growth plates, and replated at low density (to attain good single-cell physical separation) on glass coverslips for measurement. In some cases, cells were grown in low density overnight on glass coverslips. […] Currents elicited were quantified at −80 mV and +80 mV. The internal solution consisted of 140 mM cesium aspartate, 10 mM HEDTA, 2 mM CaCl2, 2.27 mM MgCl2 and 10 mM HEPES, pH 7.2, with 1,400 nM calculated free Ca^2+. […]

## Cc1c(-c2cccc(OC(F)(F)F)c2)n(Cc2ccc(Cl)cc2)c2c(=O)n(CCCO)c(=O)n(C)c12 [Compound 29, 5-(4-chlorobenzyl)-3-(3-hydroxypropyl)-1,7-dimethyl-6-(3-(trifluoromethoxy)phenyl)-1H-pyrrolo[3,2-d]pyrimidine-2,4(3H,5H)-dione]
TRPC5 channel [1]
  IC50: 421 nM

## Cn1c(=O)n(CCCO)c(=O)c2c1cc(-c1cccc(Cl)c1)n2Cc1ccc(Cl)cc1 [Compound 30, 5-(4-chlorobenzyl)-6-(3-chlorophenyl)-3-(3-hydroxypropyl)-1-methyl-1H-pyrrolo[3,2-d]pyrimidine-2,4(3H,5H)-dione]
TRPC5 channel [1]
  IC50: 503 nM
TRPC5 channel [2]
  IC50: 1.14 nM

## Cn1c(-c2cccc(OC(F)(F)F)c2)cc2c1c(=O)n(CCCO)c(=O)n2C [Compound 32, 3-(3-hydroxypropyl)-1,5-dimethyl-6-(3-(trifluoromethoxy)phenyl)-1H-pyrrolo[3,2-d]pyrimidine-2,4(3H,5H)-dione]
TRPC5 channel [1]
  IC50: 2940 nM

## Cc1c(-c2cccc(OC(F)(F)F)c2)n(C)c2c(=O)n(CCCO)c(=O)n(C)c12 [Compound 33, 3-(3-hydroxypropyl)-1,5,7-trimethyl-6-(3-(trifluoromethoxy)phenyl)-1H-pyrrolo[3,2-d]pyrimidine-2,4(3H,5H)-dione]
TRPC5 channel [1]
  IC50: 832 nM

## Cc1cn(Cc2ccc(Cl)cc2)c2c(=O)n(CCCO)c(=O)n(C)c12 [Compound 34, 5-(4-chlorobenzyl)-3-(3-hydroxypropyl)-1,7-dimethyl-1H-pyrrolo[3,2-d]pyrimidine-2,4(3H,5H)-dione]
TRPC5 channel [1]
  IC50: 3080 nM

## Cn1c(=O)n(CCCO)c(=O)c2c1cc(-c1cccc(OC(F)(F)F)c1)n2Cc1ccc(Cl)cc1 [Compound 35, 5-(4-chlorobenzyl)-3-(3-hydroxypropyl)-1-methyl-6-(3-(trifluoromethoxy)phenyl)-1H-pyrrolo[3,2-d]pyrimidine-2,4(3H,5H)-dione]
TRPC5 channel [1]
  IC50: 780 nM

## Cc1c(-c2cccc(OC(F)(F)F)c2)[nH]c2c(=O)n(CCCO)c(=O)n(C)c12 [Compound 36, 3-(3-hydroxypropyl)-1,7-dimethyl-6-(3-(trifluoromethoxy)phenyl)-1H-pyrrolo[3,2-d]pyrimidine-2,4(3H,5H)-dione]
TRPC5 channel [1]
  IC50: 7540 nM

## Cn1c(=O)n(CCCO)c(=O)c2c1c(-c1cccc(Cl)c1)cn2Cc1ccc(Cl)cc1 [Compound 37, 5-(4-chlorobenzyl)-7-(3-chlorophenyl)-3-(3-hydroxypropyl)-1-methyl-1H-pyrrolo[3,2-d]pyrimidine-2,4(3H,5H)-dione]
TRPC5 channel [1]
  IC50: 408 nM
TRPC5 channel [2]
  IC50: < 1 nM
